Measured values from patent publication US20250302765A1, “TRIACETYL ANDROGRAPHOLIDE NANOCRYSTAL AND PREPARATION METHOD AND APPLICATION THEREOF” (Henan University, priority 2024, published 2025).

Key:
[1] = set-up: species or system SD rats; conditions: rat, in vivo, po, 200 mg/kg
Method: The triacetyl andrographolide nanocrystal obtained in Example 1 was adopted, and a total of 12 SD rats were used as test objects (half female and half male, 200±20 g).
The rats were randomly divided into 2 groups (n=6, half female and half male) by body weight before a test was started. The test was carried out after fasting without water-deprivation for 12 h, one group was fed with a triacetyl andrographolide active pharmaceutical ingredient suspension (dosage of 200 mg/kg) via intragastric administration, and the other group was fed with a triacetyl andrographolide nanocrystal suspension (50 mg/kg by triacetyl andrographolide) via intragastric administration.
With an active pharmaceutical ingredient as reference, relative bioavailability of the triacetyl andrographolide nanocrystal was calculated according to the following formula:
[formula] • where AUC0-t, nanocrystal and AUC0-t, active pharmaceutical ingredient corresponded to areas under the plasma concentration-time curves at a moment 0-t of the triacetyl andrographolide nanocrystal and the active pharmaceutical ingredient respectively; and
Doseactive pharmaceutical ingredient and Dosenanocrystal corresponded to intragastric administration dosages of the triacetyl andrographolide active pharmaceutical ingredient and the nanocrystal respectively.
• where MRT(0-t) is a mean value of in-vivo retention time of drug molecules, representing time required for eliminating 63.2% of drugs in vivo; • T1/2 is a terminal elimination half-life, which is time required for a terminal phase plasma concentration to decrease by half; • Tmax is time required to reach a peak concentration of drug after administration, this parameter reflects a speed at which a drug enters the body, and the faster the absorption rate, the shorter the time to peak; • Cmax is a peak concentration of drug, the highest value of a plasma concentration occurring after administration, and this parameter is an important indicator reflecting a rate and degree of drug absorption in the body; • Vd is a proportionality constant between a drug dosage in the body and a plasma concentration when a drug reaches dynamic equilibrium in the body, usually with Las the unit, and this parameter reflects the degree of a distribution range of the drug in the body, with higher values indicating the wider distribution; and an apparent volume of distribution is numerically obtained by a ratio of a clearance rate to a terminal elimination rate; • F is bioavailability, a measure for a speed and degree at which a drug is absorbed into blood circulation, and is an important indicator for evaluating a degree of drug absorption; and the bioavailability may be divided into absolute bioavailability and relative bioavailability, the former is used to compare an absorption difference between two administration routes, while the latter is used to evaluate an absorption difference between two preparations; and • CL is a clearance rate, a value of an apparent volume of distribution of drugs cleared from the body per unit time, usually with L/h as the unit, and this parameter is an important parameter reflecting the body's drug disposal characteristics and is closely related to physiological factors; and the clearance rate is obtained according to a ratio of a dosage to AUC(0-∞).

[2] = tested on: LPS-induced RAW264.7 cell; conditions: supernatant of LPS-induced RAW264.7 cell culture fluid; cited from earlier work
[3] = in vivo; cited from earlier work
[4] = tested on: rabbits with endotoxic shock; conditions: serums of rabbits with endotoxic shock; cited from earlier work
[5] = In-vitro release degree in simulated pulmonary fluid (dialysis bag, HPLC); type: physicochemical; conditions: simulated pulmonary fluid pH 7.4, 37° C.
Method: With the triacetyl andrographolide nanocrystal prepared in Example 1 as an experimental subject, an activated dialysis bag with a molecular weight cut-off of 8000-14000 Da was taken, 5 mL of a simulated pulmonary fluid was added into the dialysis bag, the triacetyl andrographolide nanocrystal (0.5 mg by triacetyl andrographolide) was precisely weighed and dispersively suspended in the above simulated pulmonary fluid, two ends were tightened, then the dialysis bag was put into a conical flask containing 100 mL of a simulated pulmonary fluid in-vitro release medium (composition of the medium as shown in Table 1), the conical flask was placed in a constant-temperature gas bath shaker (37° C., 120 r/min), 2 mL of a released liquor was taken at each of different time points (0.5 h, 1 h, 2 h, 4 h, 6 h, 8 h, 12 h, 24 h, 36 h and 48 h) and was filtered through a 0.22 μm filter membrane, subsequence filtrates were taken to determine drug concentrations by adopting an HPLC method, and at the same time, the release medium was supplemented with 2 mL of an isothermal simulated pulmonary fluid. A cumulative release percentage was calculated according to determined results, and a release curve of the nanocrystal was drawn. […]

Compound: C=C1CC[C@@H]2[C@](C)(COC(C)=O)[C@H](OC(C)=O)CC[C@@]2(C)[C@@H]1C/C=C1/C(=O)OC[C@H]1OC(C)=O [active pharmaceutical ingredient, triacetyl andrographolide]
- AUC(0-t) [1]: 1924 ± 277.9 ng·h/mL
- CL/F [1]: 2000 mL/min/kg
- Cmax [1]: 495.1 ± 172.6 ng/mL
- MRT(0-t) [1]: 8.07 ± 0.22 h
- T1/2 [1]: 4.79 ± 1.81 h
- Tmax [1]: 6.67 ± 0.47 h
- Vd [1]: 800 ± 360 L/kg
- content of IL-1β [2]: can reduce
- content of TNF-α [2]: can reduce
- absolute bioavailability [3]: 7.19%
- absolute bioavailability relative to that of andrographolide [3]: more than 7 times
- content of IL-1β [4]: can reduce
- content of TNF-α [4]: can reduce
- cumulative release percentage ([5]; 12 h): 39%
- cumulative release percentage ([5]; 48 h): 42%
